Reference: US10768157B2, “Materials and methods for the detection of trace amounts of substances in biological and environmental samples” (THE FLORIDA INTERNATIONAL UNIVERSITY BOARD OF TRUSTEES, priority 2015, dated 2020)
Like-named read-outs stand apart in the source and are kept apart here.

Tests used:
[1] = Selectivity study of CAP-imprinted sol-gel MIP vs sol-gel NIP in MIPSPE column (imprinting factor, selectivity coefficient), HPLC-UV; format: binding; conditions: for Selectivity Coefficient (SC): SC=IF CAP/IF other analyte, untreated raw milk; for Imprinting Factor (IF): extraction from untreated raw milk, sol-gel MIP vs NIP
Excerpt: To establish the selectivity of a sol-gel MIP for a particular analyte, a non-imprinted polymer (sol-gel NIP) is synthesized in the same way as sol-gel MIP but in the absence of the template.
The IF reflects the tendency of the MIP to selectively recognize and bind the template. Competitive adsorption of MIP and NIP for CAP was investigated in a MIPSPE column system. The IF and the selectivity coefficient (SC) are indicators of the adsorption affinity of recognition sites to the imprinted CAP.
The selectivity of sol-gel MIP particles for CAP was studied. For this purpose, 30 mg of sol-gel MIP or sol-gel NIP particles were packed in SPE cartridges. Aqueous sample solutions containing 10 ng/mL CAP was passed through the SPE cartridges holding imprinted or non-imprinted particles at a flow rate of 1 mL/min by the aid of a vacuum system. Elution of the extracted chloramphenicol was performed using methanol and the concentration of chloramphenicol was determined by the HPLC-UV method.
Imprinting factor (IF) of sol-gel MIP particles was determined by the following equation: IF=Kmip/Knip where Kmip and Knip are the partition coefficient of analyte for sol-gel MIP and sol-gel NIP, respectively, which are determined by K=Cb/Cu where Cb is the amount of CAP bound by the sol-gel MIP or sol-gel NIP and Cu is the concentration of free chloramphenicol that remained in the solution.
Selectivity coefficient (SC) was calculated by the following equation: SC=IFCAP/IFother_analyte

[2] = Selectivity: imprinting factor of multi-template sol-gel MIP vs NIP; format: binding; conditions: extraction from protein precipitated milk
Protocol: The selectivity of MIP particles for the six sulfonamides was tested. For these experiments were used SPE cartridges packed with 30 mg of MIP and NIP particles respectively. Standard solutions containing 5 ng μL^−1 were passed through the SPE cartridges by holding imprinted or non-imprinted particles at a flow rate of 1 mL/min by the aid of a vacuum system. Several antibiotics have similar structure to the sulfonamides as well as antibiotics with different structure and functional groups were studied (chloramphenicol, thiamphenicol, florphenicol, flumequine, sulfisoxazole, sulfamethoxazole, sulfadimethoxine). The extraction on each antibiotic based on the optimum conditions and the extracted antibiotics were determined by the HPLC system. Imprinting factor (IF) of MIP particles was determined by the following equation: […] Capacity Studies […] So, SPE was prepared for MIP and NIP. Imprinting factor (IF), which is an indicators, express the adsorption affinity of recognition sites to the imprinted sulfonamides. Table 12 summarizes the IF values for the examined sulfonamides when extraction was carried out from protein precipitated milk.

[3] = Maximum adsorption capacity of the sol-gel molecularly imprinted sorbent (six sulfa drugs); format: binding; conditions: 30 mg MIP, mixture of 6 sulfa drugs 10-1000 mg/L
Protocol: In order to calculate the sorption capacity at equilibrium a SPE cartridge packed with 30 mg of MIP particles was used. Experiments under optimum conditions were carried out sequentially on the same SPE cartridge. In each subsequent test, the initial concentration was increased in a range 10-1000 ng μL^-1 and the final concentration was determined by HPLC-DAD. The amount of adsorbed (mg/g) was calculated by using the formula reported by Vanderborght and Van […]:00002} Were Ci is the initial concentration (mg/L), Ce is the equilibrium concentration (mg/L), V is the volume (L) and m is the mass (g) of the adsorbent. […] The final Ce concentrations were calculated on HPLC. The maximum capacity (Q, mg/g) for each of the six compounds was determined with the above equation. The results are represented in FIG. 12.

[4] = cited from earlier work
[5] = Retention (sorption) capacity of the CAP-imprinted sol-gel sorbent; format: binding; conditions: 30 mg polymer saturated with 100 mg/L CAP solution
Protocol: To determine the retention capacity (or sorption capacity) of the sol-gel derived CAP-imprinted polymer (maximum amount of the template retained by 1 g of MIP), 30 mg of polymer were saturated with CAP by passing several 5.0 mL aliquots of 100 mg/L CAP solution.

[6] = Stability of CAP standard solutions; format: physicochemical
[7] = Honey, Magnetic SPE, LC-MS/MS (ref a)

| Molecule | Imprinting Factor (IF) [1] | Imprinting Factor (IF) [2] | Adsorption Capacity, Q [3] | further results |
| --- | --- | --- | --- | --- |
| florfenicol [FFC] | 1.8 |  |  | Selectivity Coefficient (SC) [1]: 2.8 |
| CS(=O)(=O)c1ccc([C@@H](O)[C@@H](CO)NC(=O)C(Cl)Cl)cc1 [THF, thiamphenicol] | 1.9 |  |  | Selectivity Coefficient (SC) [1]: 2.6 |
| Nc1ccc(S(N)(=O)=O)cc1 [Sulfanilamide] |  | 1.56 |  |  |
| Nc1ccc(S(=O)(=O)Nc2nccs2)cc1 [Sulfathiazole] |  | 3.90 | 9.8 mg/g |  |
| CC(=O)NS(=O)(=O)c1ccc(N)cc1 [Sulfacetamide] |  | 2.70 | 5.1 mg/g |  |
| Cc1ccnc(NS(=O)(=O)c2ccc(N)cc2)n1 [Sulfamerazine] |  | 1.13 | 3.7 mg/g |  |
| Sulfamethizole |  | 4.52 |  |  |
| Chloramphenicol [CAP] | 5 |  |  | Imprinting Factor ([4]; Honey, MISPE, HPLC-UV (ref f)): 2.2; Adsorption Capacity [4, 7]: 5.53 mg/g; Imprinting Factor [4, 7]: 1.375; Imprinting Factor ([4]; Honey/Urine, MISPE, LC-MS/MS (ref d)): 2.43; Adsorption Capacity ([4]; Milk, MISPE, HPLC-UV (ref e)): 2.22 mg/g; Imprinting Factor ([4]; Milk, MISPE, HPLC-UV (ref e)): 1.38; Retention capacity / adsorption capacity of CAP [5]: 23 mg/g; Retention capacity / adsorption capacity of CAP ([5]; listed as chloramphenicol): 23.0 mg/g; Stability of working standard solutions ([6]; 0.05-20 ng/μL in water, refrigerated): stable for the same period of time; Stability of stock solution ([6]; 100 mg/L in water, kept at 4° C.): at least 3 months; Imprinting factor (IF), maximum ([1]; CAP, protein precipitated milk, MIP relative to NIP): 9.7 |
| Nc1ccc(S(=O)(=O)Nc2ncccn2)cc1 [Sulfadiazine] |  | 1.70 | 4.2 mg/g |  |
